Values quoted from earlier work, collected in PMC9516332 (Frontiers in Oncology, 2022).
Read-outs that look alike come from different tables or passages of the source.

Assays:
Conditions in all cases: cited from earlier work
[1] = biological target: panel of 255 wild-type kinases (Homo sapiens, UniProt P00519)
[2] = biological target: T1, panel of 255 wild-type kinases (Homo sapiens, UniProt Q13976)
T1 sequence (Q13976 1-671): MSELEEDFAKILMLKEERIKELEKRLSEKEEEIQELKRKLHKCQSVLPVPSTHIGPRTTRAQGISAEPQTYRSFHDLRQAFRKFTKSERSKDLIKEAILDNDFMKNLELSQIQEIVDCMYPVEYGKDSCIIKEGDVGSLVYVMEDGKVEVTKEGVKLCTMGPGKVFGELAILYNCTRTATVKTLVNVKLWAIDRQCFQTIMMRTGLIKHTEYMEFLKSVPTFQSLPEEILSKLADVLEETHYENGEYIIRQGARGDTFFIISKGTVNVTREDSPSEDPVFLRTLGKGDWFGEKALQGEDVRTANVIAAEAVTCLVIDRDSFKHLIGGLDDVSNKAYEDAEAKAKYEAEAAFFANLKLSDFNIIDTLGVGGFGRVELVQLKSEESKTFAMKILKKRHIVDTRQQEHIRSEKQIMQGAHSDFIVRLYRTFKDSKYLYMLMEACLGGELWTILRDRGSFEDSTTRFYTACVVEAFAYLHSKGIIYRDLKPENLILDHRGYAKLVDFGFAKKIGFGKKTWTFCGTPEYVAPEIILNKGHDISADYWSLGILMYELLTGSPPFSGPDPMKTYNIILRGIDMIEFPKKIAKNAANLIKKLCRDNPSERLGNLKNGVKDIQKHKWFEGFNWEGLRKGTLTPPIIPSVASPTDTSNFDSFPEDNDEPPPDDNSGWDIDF

[3] = biological target: panel of 255 wild-type kinases (Homo sapiens, UniProt P12931)
[4] = biological target: panel of 255 wild-type kinases (Homo sapiens, UniProt Q16654)
[5] = biological target: panel of 255 wild-type kinases (Homo sapiens, UniProt P07948)
[6] = biological target: T2, panel of 255 wild-type kinases (Homo sapiens, UniProt Q06418)
T2 sequence (Q06418 41-890): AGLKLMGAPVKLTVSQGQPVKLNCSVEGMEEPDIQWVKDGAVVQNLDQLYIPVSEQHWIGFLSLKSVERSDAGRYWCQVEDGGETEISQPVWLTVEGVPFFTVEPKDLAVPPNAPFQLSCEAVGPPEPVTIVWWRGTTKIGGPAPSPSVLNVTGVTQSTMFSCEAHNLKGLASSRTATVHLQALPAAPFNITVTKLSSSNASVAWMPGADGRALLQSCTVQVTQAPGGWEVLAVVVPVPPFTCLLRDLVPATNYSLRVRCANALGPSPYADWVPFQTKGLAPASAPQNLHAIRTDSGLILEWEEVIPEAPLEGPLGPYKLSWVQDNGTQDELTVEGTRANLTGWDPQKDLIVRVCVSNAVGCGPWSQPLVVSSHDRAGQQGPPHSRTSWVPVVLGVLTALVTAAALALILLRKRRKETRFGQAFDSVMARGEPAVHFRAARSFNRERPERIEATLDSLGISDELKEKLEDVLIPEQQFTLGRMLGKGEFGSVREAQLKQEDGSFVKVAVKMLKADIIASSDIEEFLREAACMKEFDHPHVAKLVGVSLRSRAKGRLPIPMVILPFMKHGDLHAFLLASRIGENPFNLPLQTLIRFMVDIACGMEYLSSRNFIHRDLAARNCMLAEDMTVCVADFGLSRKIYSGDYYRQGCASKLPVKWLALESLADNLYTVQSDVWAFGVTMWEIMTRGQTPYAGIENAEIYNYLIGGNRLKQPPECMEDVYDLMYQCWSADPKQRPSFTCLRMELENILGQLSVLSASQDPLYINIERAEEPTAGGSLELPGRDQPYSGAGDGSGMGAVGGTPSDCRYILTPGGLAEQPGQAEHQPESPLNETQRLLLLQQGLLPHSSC

[7] = biological target: panel of 255 wild-type kinases (Homo sapiens, UniProt O00311)
[8] = biological target: panel of 255 wild-type kinases (Homo sapiens, UniProt Q00526)
[9] = ABL kinase assay, 1 µmol/L single concentration, ref DOI: 10.1158/1535-7163.MCT-18-0877
[10] = kinase PGK, 1 µmol/L single concentration, ref DOI: 10.1158/1535-7163.MCT-18-0877
[11] = kinase SRC, 1 µmol/L single concentration, ref DOI: 10.1158/1535-7163.MCT-18-0877
[12] = kinase PDHK4, 1 µmol/L single concentration, ref DOI: 10.1158/1535-7163.MCT-18-0877
[13] = kinase LYNa, 1 µmol/L single concentration, ref DOI: 10.1158/1535-7163.MCT-18-0877
[14] = kinase TYRO3, 1 µmol/L single concentration, ref DOI: 10.1158/1535-7163.MCT-18-0877
[15] = CDC7/ASK kinase assay, 1 µmol/L single concentration, ref DOI: 10.1158/1535-7163.MCT-18-0877
[16] = CDK3/CycE1 kinase assay, 1 µmol/L single concentration, ref DOI: 10.1158/1535-7163.MCT-18-0877
[17] = kinase PGK, 1 µmol/L single concentration, ref DOI: 10.1371/journal.pone.0092146
[18] = kinase PDHK4, 1 µmol/L single concentration, ref DOI: 10.1371/journal.pone.0092146
[19] = kinase LYNa, 1 µmol/L single concentration, ref DOI: 10.1371/journal.pone.0092146
[20] = CDK3/CycE1 kinase assay, 1 µmol/L single concentration, ref DOI: 10.1371/journal.pone.0092146
[21] = kinase SRC, 1 µmol/L single concentration, ref DOI: 10.1371/journal.pone.0092146
[22] = CDC7/ASK kinase assay, 1 µmol/L single concentration, ref DOI: 10.1371/journal.pone.0092146
[23] = ABL kinase assay, 1 µmol/L single concentration, ref DOI: 10.1371/journal.pone.0092146
[24] = kinase TYRO3, 1 µmol/L single concentration, ref DOI: 10.1371/journal.pone.0092146

Row | Compound | %-inhibition ABL [1, 9] | %-inhibition at 1 µmol/L, PGK [2, 10] | %-inhibition at 1 µmol/L, SRC [3, 11] | %-inhibition at 1 µmol/L, PDHK4 [4, 12] | %-inhibition at 1 µmol/L, LYNa [5, 13] | %-inhibition at 1 µmol/L, TYRO3 [6, 14] | %-inhibition CDC7/ASK [7, 15] | %-inhibition CDK3/CycE1 [8, 16] | %-inhibition at 1 µmol/L, PDHK4 [4, 18] | further results
1 | CC#CC(=O)N1CCC[C@H]1c1nc(-c2ccc(C(=O)Nc3ccccn3)cc2)c2c(N)nccn12 [acalabrutinib] | -2.81% | -3.7% | 10% | 0.391% | 2% | 3% | -1.64% | -6% |  | 
2 | CCc1cc2c(cc1N1CCC(N3CCOCC3)CC1)C(C)(C)c1[nH]c3cc(C#N)ccc3c1C2=O [alectinib] | 5% | -1.53% | 10% | 1.7% | 32% | 30% | -0.8% | -2.74% |  | 
3 | COc1cc(N2CCC(N3CCN(C)CC3)CC2)ccc1Nc1ncc(Cl)c(Nc2ccccc2P(C)(C)=O)n1 [brigatinib] |  |  |  |  |  |  |  |  |  | %-inhibition ABL [1]: 54%; %-inhibition at 1 µmol/L, PGK [2]: 60%; %-inhibition at 1 µmol/L, SRC [3]: 65%; %-inhibition at 1 µmol/L, PDHK4 [4]: 5%; %-inhibition at 1 µmol/L, LYNa [5]: 51%; %-inhibition at 1 µmol/L, TYRO3 [6]: 27%; %-inhibition CDC7/ASK [7]: 0.868%; %-inhibition CDK3/CycE1 [8]: 0.848%
4 | Cc1cc(Nc2ncc(Cl)c(Nc3ccccc3S(=O)(=O)C(C)C)n2)c(OC(C)C)cc1C1CCNCC1 [ceritinib] | -1.61% | 38% | 9% | 2.55% | 16% | 7% | -2.74% | -3.17% |  | 
5 | O=C(c1ccc(F)c(F)c1Nc1ccc(I)cc1F)N1CC(O)([C@@H]2CCCCN2)C1 [cobimetinib] | -4% | 2.54% | 6.45% | -1.13% | -1.81% | 4.55% | 5% | 2.16% |  | 
6 | C[C@@H](Oc1cc(-c2cnn(C3CCNCC3)c2)cnc1N)c1c(Cl)ccc(F)c1Cl [crizotinib] |  |  |  |  |  |  |  |  | -3.76% | %-inhibition at 1 µmol/L, PGK [2, 17]: -2.6%; %-inhibition at 1 µmol/L, LYNa [5, 19]: 42%; %-inhibition CDK3/CycE1 [8, 20]: -5.68%
7 | CC(C)(C)c1nc(-c2cccc(NS(=O)(=O)c3c(F)cccc3F)c2F)c(-c2ccnc(N)n2)s1 [dabrafenib] |  |  |  |  |  |  |  |  | -1% | %-inhibition at 1 µmol/L, SRC [3, 21]: 68%; %-inhibition CDC7/ASK [7, 22]: -6%
8 | C=CC(=O)N1CCC[C@@H](n2nc(-c3ccc(Oc4ccccc4)cc3)c3c(N)ncnc32)C1 [ibrutinib] | 8% | 1.89% |  |  | 99% | 12% | -1% | 0.486% |  | 
9 | CO[C@@H]1[C@H](N(C)C(=O)c2ccccc2)C[C@H]2O[C@]1(C)n1c3ccccc3c3c4c(c5c6ccccc6n2c5c31)C(=O)NC4 [midostaurin] | 9% | 98% | 79% | 1.09% | 90% | 31% | 60% | 11% |  | 
10 | C=CC(=O)Nc1cc(Nc2nccc(-c3cn(C)c4ccccc34)n2)c(OC)cc1N(C)CCN(C)C [osimertinib] | 4.62% | 3.61% | 9% | 0.264% | 0.63% | 8% | 1.64% | 22% |  | 
11 | CC(=O)Nc1cccc(-n2c(=O)n(C3CC3)c(=O)c3c(Nc4ccc(I)cc4F)n(C)c(=O)c(C)c32)c1 [trametinib] |  |  |  |  |  |  |  |  | -1.65% | %-inhibition ABL [1, 23]: -8%; %-inhibition at 1 µmol/L, PGK [2, 17]: -1.31%; %-inhibition at 1 µmol/L, SRC [3, 21]: -5.4%; %-inhibition at 1 µmol/L, LYNa [5, 19]: -1.74%; %-inhibition at 1 µmol/L, TYRO3 [6, 24]: -2.65%; %-inhibition CDC7/ASK [7, 22]: -8%; %-inhibition CDK3/CycE1 [8, 20]: 0.16%
12 | CCCS(=O)(=O)Nc1ccc(F)c(C(=O)c2c[nH]c3ncc(-c4ccc(Cl)cc4)cc23)c1F [vemurafenib] |  |  |  |  |  |  |  |  | -1.4% | %-inhibition ABL [1, 23]: 15%; %-inhibition at 1 µmol/L, PGK [2, 17]: -4.33%; %-inhibition at 1 µmol/L, SRC [3, 21]: 52%; %-inhibition at 1 µmol/L, LYNa [5, 19]: 73%; %-inhibition at 1 µmol/L, TYRO3 [6, 24]: 3.16%; %-inhibition CDC7/ASK [7, 22]: -7%; %-inhibition CDK3/CycE1 [8, 20]: -4.34%
